Reference: patent publication US11884662B2, “N-1 branched cycloalkyl substituted imidazo[4,5-c]quinoline compounds, compositions, and methods” (3M INNOVATIVE PROPERTIES COMPANY, priority 2018, dated 2024)

Legend:
[1] = tested on: Human peripheral blood mononuclear cells (PBMC); experiment: Cytokine Induction in Human Cells; format: cell-based; details: 21-24 hours culture, lowest concentration inducing at least 2× negative control; for MEC to Induce Cytokine IFN-alpha: IFN-alpha by ELISA; for MEC to Induce Cytokine IFN-gamma: IFN-gamma by multiplex bead assay; for MEC to Induce Cytokine TNF-alpha: TNF-alpha by multiplex bead assay
Description: Cytokine Induction in Human Cells
Whole blood was obtained from healthy human donors and collected by venipuncture into vacutainer tubes or syringes containing EDTA. Human peripheral blood mononuclear cells (PBMC) were purified from the whole blood by density gradient centrifugation. Histopaque 1077 (15 mL, Sigma, St. Louis, MO) was transferred to 6×50 mL sterile polypropylene conical tubes. The Histopaque was overlayed with 15-25 mL of blood diluted 1:2 in Hank's Balanced Salts Solution (HBSS) (Gibco, Life Technologies, Grand Island, NY). The tubes were then centrifuged at 1370 rpm for 30 minutes at 20° C., with no brake (400×g, GH 3.8A Rotor).
The interface (buffy coat) containing the PBMC was collected and placed in a new sterile 50 mL conical polypropylene centrifuge tube. The PBMC were mixed with an equal volume of HBSS (about 20 mL from the interface and about 20 mL of HBSS), and then centrifuged at 1090 rpm, 10 minutes, 20° C., with brake (270×g, GH 3.8A Rotor). After completing centrifugation, the cells were resuspended in 2-3 mL ACK Red blood cell lysis buffer (ammonium chloride potassium solution, Gibco, Life Technologies) and incubated for 2-5 minutes at 20° C. Next, HBSS (40 mL) was added to the cells, and the sample was centrifuged at 270×g for 10 minutes at 20° C. The supernatant was decanted, and the cell pellet was resuspended in 5 mL AIM V Medium (Gibco, Life Technologies). Cell aggregates and debris were removed by filtering the cell solution through a BD Falcon 70 micron nylon cell strainer (BD Biosciences, San Jose, CA).
The number of viable cells was determined by counting with a Miltenyi FACS instrument (Miltenyi Biotec Inc., San Diego, CA) or by using a hemacytometer. For determining cell viability with a hemacytometer, the cells were diluted 1/10 in 0.4% trypan blue and HBSS (specifically, 50 microliter of trypan blue+40 microliter of HBSS+10 microliter of cell solution were added to a microfuge tube and mixed). Ten microliters of the diluted cells were then applied to the hemacytometer, and the number of viable PBMC were determined by microscopy.
The PBMC sample was then resuspended in 96-well plates at a concentration of 8×10^5 cells/well in 0.1 mL of AIM-V medium. Each compound was solubilized in DMSO to create a 3 mM stock solution. The stock solution was then further diluted with AIM-V medium to prepare the serial dilutions. The diluted compound (100 microliters) was then transferred to the PBMCs to achieve a testing set with final compound concentrations of 30, 10, 3.3, 1.1, 0.37, 0.12, 0.04, 0.01 micromolar or a testing set with final compound concentrations of 100, 33.3, 11.1, 3.7, 1.2, and 0.4 micromolar. The plates also had both positive and negative controls. The negative control wells contained only AIM-V medium with no example compound. The positive control wells contained a control set of imiquimod serially diluted to concentrations of 30, 10, 3.3, 1.1, 0.37, 0.12, 0.04, 0.01 micromolar or a control set of imiquimod serially diluted to concentrations of 100, 33.3, 11.1, 3.7, 1.2, and 0.4 micromolar. The concentrations used in the control set were selected to match the concentrations used in the testing set. The plates were then cultured at 37° C./5% CO2 for 21-24 hours. Cell-free supernatants were harvested by centrifuging the 96-well plates at 2100 rpm, 23° C. for 10 minutes. Approximately 160 microliters of the supernatant was then stored in a NUNC 96-well plate, covered with the compression cap and stored at −80° C. until the cytokine analysis was done.
IFN-alpha cytokine levels (picograms/mL) were measured by ELISA (human IFN-alpha, pan specific, Mabtech, Cincinnati, OH). IFN-gamma and TNF-alpha levels (picograms/mL) were measured by multiplex bead assay (magnetic beads, R & D Systems Minneapolis, MN) according to the manufacturer's instructions. […]

[2] = tested on: Human dermal adult fibroblast cells; experiment: Cell Viability Determination (resazurin); format: cell-based; details: human dermal adult fibroblasts, compound 200 micromolar, 24 hours, normalized to untreated vehicle control, n=3
Description: Cell Viability Determination
Each compound was individually dissolved in DMSO and then in Dulbecco's minimum essential cell culture medium (DMEM, Gibco, Life Technologies) containing 10% fetal bovine serum (Corning Life Sciences, Tewksbury, MA) and 1× antibiotic/antimycotic solution. The final DMSO concentration in a 200 micromolar compound concentration was 0.5%.
Human dermal adult fibroblast cells (ATCC, Manassas, VA) were seeded (7,500 cells/wells in a 96-well tissue culture polystyrene plate) in 100 microliters of DMEM cell culture medium containing 10% fetal bovine serum and 1× antibiotic/antimycotic solution. After approximately 18-24 hours of incubation in a humidified environment at 37° C. with 5% CO2, the wells were individually treated with one of the compounds in cell culture medium at a compound concentration of 200 micromolar or with 0.5% DMSO in cell culture medium as the vehicle (untreated) control. The cells were then incubated for 24 hours in a humidified environment at 37° C. with 5% CO2. Cell viability was determined using resazurin according to the procedure described by O'Brien, J. et al., European Journal of Biochemistry, 2000, 267(17): 5421-5426. Cell viability was normalized to the vehicle (untreated) cell control. In Table 14, the mean percent cell viability (n=3) is reported for the compounds of Examples 1, 2, 4, 5 and for 1-[(4-amino-1H-imidazo[4,5-c]quinoline-1-yl)methyl] cyclopentanol (the Comparative Example compound).

| SMILES | MEC to Induce Cytokine IFN-alpha [1] [µM] | MEC to Induce Cytokine IFN-gamma [1] [µM] | MEC to Induce Cytokine TNF-alpha [1] [µM] | Mean Percent Cell Viability [2] [%] |
| --- | --- | --- | --- | --- |
| CC[C@@H](n1cnc2c(N)nc3ccccc3c21)C1(O)CCCCC1 [Example 6, 1-[(1R)-1-(4-aminoimidazo[4,5-c]quinolin-1-yl)propyl]cyclohexanol] | 1.2 | 1.2 | 1.2 |  |
| Nc1nc2ccccc2c2c1ncn2CC1(O)CCCC1 [Comparative Example, 1-[(4-amino-1H-imidazo[4,5-c]quinoline-1-yl)methyl]cyclopentanol, reference compound] | 10 | 10 | 10 | 2.1 |
| CC[C@H](n1cnc2c(N)nc3ccccc3c21)C1(O)CCCC1 [Example 5, 1-[(1S)-1-(4-aminoimidazo[4,5-c]quinolin-1-yl)propyl]cyclopentanol] | >30 | >30 | >30 | 78 |
| C[C@@H](n1cnc2c(N)nc3ccccc3c21)C1(O)CCCC1 [Example 1, 1-[(1R)-1-(4-aminoimidazo[4,5-c]quinolin-1-yl)ethyl]cyclopentanol] | 3.3 | 3.3 | 3.3 | 80 |
| C[C@@H](n1cnc2c(N)nc3ccccc3c21)C1(O)CC=CC1 [Example 3, 1-[(1R)-1-(4-aminoimidazo[4,5-c]quinolin-1-yl)ethyl]cyclopent-3-en-1-ol] | 3.3 | 3.3 | 3.3 |  |
| C[C@H](n1cnc2c(N)nc3ccccc3c21)C1(O)CCCC1 [Example 2, 1-[(1S)-1-(4-aminoimidazo[4,5-c]quinolin-1-yl)ethyl]cyclopentanol] | >30 | >30 | >30 | 81 |
| CC[C@@H](n1cnc2c(N)nc3ccccc3c21)C1(O)CCCC1 [Example 4, 1-[(1R)-1-(4-aminoimidazo[4,5-c]quinolin-1-yl)propyl]cyclopentanol] | 1.1 | 1.1 | 0.37 | 86 |
